Assay results reported in paper PMC10571761, “Transgenic Mice Expressing Functional TCRs Specific to Cardiac Myhc-α 334–352 on Both CD4 and CD8 T Cells Are Resistant to the Development of Myocarditis on C57BL/6 Genetic Background” (Cells, 2023).
Peptide text beside a SMILES is read from it.

How the values were obtained:
A/J mice = details: immunization with CFA; cited from earlier work
Excerpt: Histologically, the disease process can be classified into lymphocytic, neutrophilic, eosinophilic, granulomatous, and giant cell myocarditis. Of these, lymphocytic myocarditis generally occurs with viral infections. Although most myocarditis-affected individuals may spontaneously recover, up to 20% of them can develop DCM, in which autoimmunity is suspected as an underlying mechanism. […] The immunogenic epitopes can be promiscuous in that they can bind multiple MHC alleles.

CD4 and CD8 T cells = details: cited from earlier work
Excerpt: In that direction, we sought to create TCR Tg mice specific to Myhc-α 334–352 and made a few observations. […] However, expression of Myhc-α 334–352-specific TCRs in both CD4 and CD8 T cells was not expected. To our knowledge, our Tg model is only the second such example to have been reported, with the earlier example being 1C6 Tg mice specific to myelin olig ...

lymphocytes from Tg mice = experiment: Cytokine analysis, lymphocytes of immunized Tg mice; assay type: cell-based, TCR transgenic mice on C57BL/6 background; details: control peptide, two days
Description: Myhc-α 334–352 immunizations involved peptide/CFA emulsions containing Mycobacterium tuberculosis H37RA extract (Difco Laboratories, Detroit, MI, USA) with a final concentration of 5 mg/mL. The emulsions were administered subcutaneously (100 µg/mouse) in the inguinal and sternum regions on days 0 and 7. In some experiments, animals received emulsions in the left and right shoulders and on the right and left sides of the hip regions in split doses. Additionally, pertussis toxin (List Biological Laboratories, Campbell, CA, USA) was administered to animals intraperitoneally (100 ng/mouse) on days 0 and 2 after the first immunization.
Lymphocytes were obtained from wild-type (Wt) or Tg mice immunized with or without Myhc-α 334–352. […] Cytokines were analyzed using the LEGENDplex Murine Th cytokine Panel (12-plex or 13-plex; BioLegend). […] Beads were acquired by flow cytometry (FACSCalibur™), and concentrations of cytokines were determined using the LEGENDplex™ data analysis software suite (BioLegend). […]
Figure 6 Tg T cells produce mainly Th1 and Th17 cytokines. […] Cells were stimulated with or without Myhc-α 334–352 or OVA 323–339 (control) at the indicated concentrations for two days, and the culture supernatants were evaluated by cytokine bead array analysis except for IL-4, which was measured by ELISA. […]

BALB/c mice = details: immunization with CFA; cited from earlier work
Excerpt: (§1) Histologically, the disease process can be classified into lymphocytic, neutrophilic, eosinophilic, granulomatous, and giant cell myocarditis. Of these, lymphocytic myocarditis generally occurs with viral infections. Although most myocarditis-affected individuals may spontaneously recover, up to 20% of them can develop DCM, in which autoimmunity is suspected as an underlying mechanism. Although autoantibodies for various antigens—such as cardiac myosin (Myhc), adenine nucleotide translocator (ANT), branched-chain α-ketoacid dehydrogenase kinase (BCKDk), sarcoplasmic/end ...

IA^b = biological target: T1, IA^b (Mus musculus, UniProt P14434+P14483); experiment: IA^b binding assay (DELFIA competition); details: soluble thrombin-cleaved IA^b (0.35 µg); competitor 0.00001 µM to 100 µM; biotinylated OVA 323–339 (50 µM) reference; pH 7.0 phosphate; overnight RT; fluorescence 340/615 nm; three to five experiments, three replicates each; read-out: IC50 value, binding to IA^b molecules
T1 construct: IA^b constructs were designed to contain the extracellular domains of IA^b-α and IA^b-β; CLIP 88–102 ([…]) with thrombin site (cleaved yes); made in house; host or cells: Sf9 insect cells (baculovirus)
T1 sequence (P14434 24-218 limits assumed): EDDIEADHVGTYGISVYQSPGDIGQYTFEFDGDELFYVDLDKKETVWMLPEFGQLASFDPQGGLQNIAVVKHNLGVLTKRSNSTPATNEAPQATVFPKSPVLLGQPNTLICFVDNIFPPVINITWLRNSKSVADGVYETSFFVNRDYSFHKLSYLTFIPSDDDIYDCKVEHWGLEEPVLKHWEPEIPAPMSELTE
T1 sequence (P14483 28-226 limits assumed): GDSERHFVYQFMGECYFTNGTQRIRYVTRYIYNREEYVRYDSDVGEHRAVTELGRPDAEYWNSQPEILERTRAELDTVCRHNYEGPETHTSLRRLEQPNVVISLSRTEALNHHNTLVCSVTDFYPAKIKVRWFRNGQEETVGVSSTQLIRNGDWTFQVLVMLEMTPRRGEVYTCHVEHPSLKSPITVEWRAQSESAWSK
Excerpt: To determine the binding affinity of Myhc-α 334–352 to IA^b, soluble IA^b molecules were expressed similarly to the IA^k molecule. Briefly, IA^b constructs were designed to contain the extracellular domains of IA^b-α and IA^b-β [43]. The IA^b-β construct consisted of the class II-associated invariant chain peptide (CLIP) 88–102 (VSQMRMATPLLMRPM) and thrombin site to release the CLIP [44]. After expressing the IA^b molecules in baculovirus using Sf9 cells and purifying on an anti-IA^b affinity column (clone, M5/114) (BioXCell, West Lebanon, NH, USA), they were cleaved with thrombin to obtain empty IA^b molecules. […] In addition, anti-IA^b (10 µg/mL) was coated onto white fluorescence 96-well plates (Nunc, Rochester, NY, USA) in 0.2 M sodium phosphate buffer, pH 6.8, overnight, followed by washing and blocking with 2% casein for 2 h at 37 °C. […] Europium-labeled streptavidin was added (1 µg/mL) in dissociation-enhanced lanthanide fluorescence immunoassay (DELFIA®) buffer and then the DELFIA®-enhancement solution (Perkin Elmer, Waltham, MA, USA). Fluorescence intensities were measured at wavelengths of 340/615 nm using a VICTOR® Multilabel Plate Reader (Perkin Elmer), and IC50 values were then determined. […]

IA^k = biological target: T2, IA^k (Mus musculus, UniProt P01910+P06343); experiment: IA^k binding assay (DELFIA competition); details: soluble thrombin-cleaved IA^k; reference peptide biotinylated HEL 46–61; overnight RT; europium-labeled streptavidin, fluorescence 340/615 nm; mean ± SEM from three to five experiments, three replicates each; read-out: IC50 value, binding to IA^k molecules
T2 construct: After expressing soluble IA^k and IA^b monomers in a baculovirus system; CLIP peptide, released by thrombin cleavage (cleaved yes); made in house; host or cells: baculovirus system (insect cells; Sf9 is stated only for IA^b)

rats = details: immunization with CFA; cited from earlier work
Excerpt: as §1

[1] = biological target: T3, cardiac myosin heavy chain (Myhc)-α peptide on I-Ak (mouse); experiment: multimer staining
T3 peptide: DSAFDVLSFTAEEKAGVYK

ANT 21–40: adenine nucleotide translocator 21–40 epitope (VSKTAVAPIERVKLLLQVQH; UniProt P48962 21-40, looked up, fragment)
myocarditis induction in A/J mice (in words) (A/J mice): myocarditogenic

MOG 35–55: myelin oligodendrocyte glycoprotein 35–55 (GPGYPIRALVGDEAELPCRIS; UniProt Q61885 35-55, looked up, fragment)
T cell stimulation (in words) (CD4 and CD8 T cells): stimulate both cell types

Myhc-α 338–348: truncated version of Myhc-α 334–352 (DVLSFTAEEKA; UniProt Q02566 338-348, looked up, fragment)
T cell stimulation by truncated peptide (in words) (CD4 and CD8 T cells; A/J): could stimulate both CD4 and CD8 T cells

cTNI 105–122: cardiac troponin I 105–122 epitope (VDKVDEERYDVEAKVTKN; UniProt P48787 105-122, looked up, fragment)
myocarditis induction in A/J mice (in words) (A/J mice): myocarditogenic

ISQAVHAAHAEINEAGR [OVA 323–339]
cytokine responses (in words) (lymphocytes from Tg mice): lack of cytokine responses

Myhc-α 614–643: myocarditogenic epitope in BALB/c mice (SLKLMATLFSTYASADTGDSGKGKGGKKKG; UniProt Q02566 614-643, looked up, fragment)
myocarditis induction in BALB/c mice (in words) (BALB/c mice): myocarditogenic

β1AR 181–200: β1 adrenergic receptor 181–200 epitope (TVWAISALVSFLPILMHWWR; UniProt P34971 181-200, looked up, fragment)
myocarditis induction in A/J mice (in words) (A/J mice): myocarditogenic

CC(C)C[C@H](NC(=O)[C@@H](NC(=O)[C@H](CC(=O)O)NC(=O)[C@H](Cc1ccccc1)NC(=O)[C@H](C)NC(=O)[C@H](CO)NC(=O)[C@@H](N)CC(=O)O)C(C)C)C(=O)N[C@@H](CO)C(=O)N[C@@H](Cc1ccccc1)C(=O)N[C@H](C(=O)N[C@@H](C)C(=O)N[C@@H](CCC(=O)O)C(=O)N[C@@H](CCC(=O)O)C(=O)N[C@@H](CCCCN)C(=O)N[C@@H](C)C(=O)NCC(=O)N[C@H](C(=O)N[C@@H](Cc1ccc(O)cc1)C(=O)N[C@@H](CCCCN)C(=O)O)C(C)C)[C@@H](C)O [Myhc-α 334–352] (H-DSAFDVLSFTAEEKAGVYK-OH)
IC50 (IA^b): > 100 µM | IC50 (IA^k): 37.8 ± 10.3 µM

SERCA2a 971–990: sarcoplasmic/endoplasmic reticulum Ca2^+ adenosine triphosphatase 2a 971–990 epitope (KISLPVILMDETLKFVARNY; UniProt O55143 971-990, looked up, fragment)
myocarditis induction in A/J mice (in words) (A/J mice): myocarditogenic

Myhc-α 1304–1320: myocarditogenic epitope in rats (RGKLSYTQQMEDLKRQL; UniProt P02563 1304-1320, looked up, fragment)
myocarditis induction in rats (in words) (rats): myocarditogenic

B1: Myhc-α 334–352-specific TCR of T cell hybridoma clone C33 (transgenic TCR of the Myhc-α 334–352 TCR Tg mice) (TCR)
alpha TRAV14-1*02 TRAJ42*01 CDR3: CAASAEGSNAKLTF
beta TRBV2*01 TRBJ2-5*01 CDR3: CASSQSLGQDTQYF
binding result [1]: recognises
